Earlier results as cited in publication PMC8803738, “Impact of the mouse model and molar amount of injected ligand on the tissue distribution profile of PSMA radioligands” (European Journal of Nuclear Medicine and Molecular Imaging, 2021).
Read-outs that look alike come from different tables or passages of the source.

Tested on: PC-3 PIP/flu tumor-bearing mice
Settings: PC-3 PIP model, 1.0 nmol, ref Deberle et al. [21], cited from earlier work

## CC(C)Cc1ccc(C(C)C(=O)NC(CCN)C(=O)NCCCCC(NC(=O)CN2CCN(CC(=O)O)CCN(CC(=O)O)CCN(CC(=O)O)CC2)C(=O)NCC2CCC(C(=O)NC(Cc3ccc4ccccc4c3)C(=O)NCCCCC(NC(=O)NC(CCC(=O)O)C(=O)O)C(=O)O)CC2)cc1 (stereo not drawn) [[^177Lu]Lu-Ibu-DAB-PSMA, metal not drawn]
4 h p.i.
  Tissue distribution, Blood: 3.7 ± 0.5 % IA/g
  Tissue distribution, Bone: 0.62 ± 0.08 % IA/g
  Tissue distribution, Heart: 1.3 ± 0.1 % IA/g
  Tissue distribution, Intestines: 0.71 ± 0.05 % IA/g
  Tissue distribution, Kidneys: 19 ± 2 % IA/g
  Tissue distribution, Liver: 1.5 ± 0.1 % IA/g
  Tissue distribution, Lung: 2.4 ± 0.3 % IA/g
  Tissue distribution, Muscle: 0.54 ± 0.09 % IA/g
  Tissue distribution, PC-3 PIP tumor: 66 ± 11 % IA/g
  Tissue distribution, PC-3 flu tumor: 1.2 ± 0.3 % IA/g
  Tissue distribution, Salivary glands: 0.86 ± 0.38 % IA/g
  Tissue distribution, Spleen: 1.1 ± 0.1 % IA/g
  Tissue distribution, Stomach: 0.62 ± 0.12 % IA/g
  Tumor-to-blood ratio: 18 ± 3
  Tumor-to-kidney ratio: 3.0 ± 0.5
  Tumor-to-liver ratio: 45 ± 8
24 h p.i.
  Tissue distribution, Blood: 0.16 ± 0.02 % IA/g
  Tissue distribution, Bone: < 0.10 % IA/g
  Tissue distribution, Heart: 0.10 ± 0.01 % IA/g
  Tissue distribution, Intestines: 0.11 ± 0.03 % IA/g
  Tissue distribution, Kidneys: 6.0 ± 0.7 % IA/g
  Tissue distribution, Liver: 0.56 ± 0.10 % IA/g
  Tissue distribution, Lung: 0.21 ± 0.03 % IA/g
  Tissue distribution, Muscle: 0.05 ± 0.01 % IA/g
  Tissue distribution, PC-3 PIP tumor: 52 ± 3 % IA/g
  Tissue distribution, PC-3 flu tumor: 0.17 ± 0.01 % IA/g
  Tissue distribution, Salivary glands: 0.56 ± 0.37 % IA/g
  Tissue distribution, Spleen: 0.32 ± 0.03 % IA/g
  Tissue distribution, Stomach: 0.18 ± 0.13 % IA/g
  Tumor-to-blood ratio: 337 ± 40
  Tumor-to-kidney ratio: 8.9 ± 1.0
  Tumor-to-liver ratio: 98 ± 21
48 h p.i.
  Tissue distribution, Blood: 0.10 ± 0.04 % IA/g
  Tissue distribution, Bone: < 0.10 % IA/g
  Tissue distribution, Heart: < 0.10 % IA/g
  Tissue distribution, Intestines: < 0.10 % IA/g
  Tissue distribution, Kidneys: 4.1 ± 0.8 % IA/g
  Tissue distribution, Liver: 0.49 ± 0.08 % IA/g
  Tissue distribution, Lung: 0.14 ± 0.04 % IA/g
  Tissue distribution, Muscle: < 0.10 % IA/g
  Tissue distribution, PC-3 PIP tumor: 36 ± 10 % IA/g
  Tissue distribution, PC-3 flu tumor: 0.15 ± 0.04 % IA/g
  Tissue distribution, Salivary glands: < 0.10 % IA/g
  Tissue distribution, Spleen: 0.26 ± 0.08 % IA/g
  Tissue distribution, Stomach: < 0.10 % IA/g
  Tumor-to-blood ratio: 364 ± 67
  Tumor-to-kidney ratio: 8.7 ± 1.8
  Tumor-to-liver ratio: 72 ± 11
